Experimental findings from patent US10919852B2, “Immunomodulator compounds” (CHEMOCENTRYX, INC., priority 2017, dated 2021) are described below.

Usually IC50 stands for the concentration that gives 50% inhibition. A lower IC50 goes with greater potency in that assay.

The experiment has as its target human PD-L1 / Human PD-1 (Homo sapiens (Human), UniProt Q9NZQ7). Nature of the experiment: Enzyme-Linked Immunosorbent Assay (ELISA), PD-1/PD-L1 binding. As to conditions: plate-coated human PD-L1, biotinylated human PD-1. In short, it runs like this:
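Plates were coated with human PD-L1 at […]. Biotinylated human PD-1 (0.3 μg/mL) was added with 1:5 serially diluted compound for 1 h at 37 °C. Bound PD-1 was detected with streptavidin-HRP (1 h) and TMB (20 min), with absorbance read at 450 nm.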
(ELISA stands for enzyme-linked immunosorbent assay.)

Sequence of human PD-L1 / Human PD-1 (Q9NZQ7 19-239): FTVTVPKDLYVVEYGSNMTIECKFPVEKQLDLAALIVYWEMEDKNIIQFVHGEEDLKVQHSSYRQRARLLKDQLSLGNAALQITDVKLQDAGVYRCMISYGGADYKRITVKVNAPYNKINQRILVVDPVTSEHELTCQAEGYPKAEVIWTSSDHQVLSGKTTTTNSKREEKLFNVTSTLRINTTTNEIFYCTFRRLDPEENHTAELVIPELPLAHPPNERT

For the molecule `N#Cc1cncc(COc2cc(O[C@H]3CCc4c(-c5cccc(OCCCN6CC7(C6)CC(F)(F)C7)c5Cl)cccc43)c(Cl)cc2CN[C@H]2CCC[C@H]2O)c1`, the IC50 is under 5 nM.
Next, `Cc1c(OCCCN2CCC(C)(F)CC2)cccc1-c1cccc2c1C[C@H](F)[C@@H]2Oc1cc(OCc2cc(C#N)cc(C#N)c2)c(CN[C@H]2CCC(=O)NC2)cc1Cl`: 5 to 500 nM; `C[C@@H](O)[C@H](NCc1cc(Cl)c(O[C@H]2CCc3c(-c4cccc(OCCCN5CC(O)C5)c4Cl)cccc32)cc1OCc1cncc(C#N)c1)C(=O)O`: under 5 nM.
`N#Cc1cncc(COc2cc(O[C@H]3CCc4c(-c5cccc(OCCCN6CCC(F)CC6)c5C#N)cccc43)c(Cl)cc2CNCC2CCC(=O)N2)c1` (some centres unmarked) had an IC50 of 5 to 500 nM.
In turn, `Cc1c(OCCCN2C(C)CC2C)cccc1-c1cccc2c1CC[C@@H]2Oc1cc(OCc2cc(C#N)cc(C#N)c2)c(CN[C@H]2CCC(=O)NC2)cc1Cl` (some centres unmarked) gave a concentration for half-maximal inhibition (IC50) of under 5 nM.
As for `CCOc1cc(O[C@H]2CCc3c(-c4cccc(OCCCN5CCC5(C)C)c4C)cccc32)c(Cl)cc1CNCCn1nn[nH]c1=O`, the IC50 lay within 5 to 500 nM.
For `CCN1CCC(COc2cccc(-c3cccc4c3CC[C@@H]4Oc3cc(OCc4cncc(C#N)c4)c(CNC[C@@H]4CCC(=O)N4)cc3Cl)c2Cl)C1` (some centres unmarked) the value was under 5 nM.
Next, `N#Cc1cncc(COc2cc(O[C@H]3CCc4c(-c5cccc(OCCCN6CCC6)c5Cl)cccc43)c(Cl)cc2CNC[C@H]2CCC(=O)N2)c1`: under 5 nM.
Next, `CCOc1cc(O[C@H]2CCc3c(-c4cccc(OCCCN5[C@H](C)CC[C@H]5C)c4C)cccc32)c(Cl)cc1CN1CCC[C@H](C(=O)O)C1`: 5 to 500 nM; `CCOc1cc(O[C@H]2CCc3c(-c4cccc(OCCCN5CCC5(C)C)c4C)cccc32)c(Cl)cc1CN1CC[C@@H](C(=O)OC)C1`: 5 to 500 nM.
On to `N#Cc1cncc(COc2cc(O[C@H]3CCc4c(-c5cccc(OCCC(N)=O)c5Cl)cccc43)c(Cl)cc2CN[C@@H]2CCCC[C@@H]2O)c1`, for which the concentration for half-maximal inhibition (IC50) was in the range of 5 to 500 nM.
Next, `CCOc1cc(O[C@@H]2c3cccc(-c4cccc(OCCCN5CCC(C)(F)CC5)c4C)c3C[C@@H]2F)c(Cl)cc1CN[C@H](C(=O)NS(C)(=O)=O)[C@@H](C)O`: 5 to 500 nM; `Cc1c(OCCCN2CC(C)(F)C2)cccc1-c1cccc2c1CC[C@@H]2Oc1cc(OCc2cc(C#N)cc(C#N)c2)c(CNC[C@H]2CCC(=O)N2)cc1Cl`: 5 to 500 nM; `Cc1c(OCCCN2CCC(O)CC2)cccc1-c1cccc2c1C[C@H](F)[C@@H]2Oc1cc(OCc2cncc(C#N)c2)c(CN[C@@H]2CCCC[C@@H]2O)cc1Cl`: under 5 nM.
Molecule `N#Cc1cncc(COc2cc(O[C@H]3CCc4c(-c5cccc(OCCCN6CCNC(=O)C6)c5Cl)cccc43)c(Cl)cc2CNC2(C(=O)O)CCC2)c1` returned an IC50 of under 5 nM.
Take `CC(C)N1CCC(COc2cccc(-c3cccc4c3CC[C@@H]4Oc3cc(OCc4cncc(C#N)c4)c(CN[C@H]4CCC(=O)NC4)cc3Cl)c2Cl)C1` (some centres unmarked): the IC50 is under 5 nM.
Next, `Cc1c(OCCCN2CCC(C)(F)CC2)cccc1-c1cccc2c1CC[C@@H]2Oc1cc(OCc2cncc(C#N)c2)c(CN[C@@H]2CCC(=O)NC2)cc1Cl`: under 5 nM; `N#Cc1cncc(COc2cc(O[C@H]3CCc4c(-c5cccc(OCCCN6CCC(F)CC6)c5Cl)cccc43)c(Cl)cc2CN[C@@H]2CCCC[C@@H]2O)c1`: under 5 nM.
For `CCOc1cc(O[C@H]2CCc3c(-c4cccc(OCCCN5CCC5(C)C)c4C)cccc32)c(Cl)cc1CN1CC[C@H](C(=O)OC)C1` the value was 5 to 500 nM.
Next, `N#Cc1cncc(COc2cc(O[C@H]3CCc4c(-c5cccc(OCCCN6CCC(O)CC6)c5Cl)cccc43)c(Cl)cc2CN[C@@H](CO)C(=O)O)c1`: under 5 nM; `CC(C)N1CCC(COc2cccc(-c3cccc4c3CC[C@@H]4Oc3cc(OCc4cncc(C#N)c4)c(CNC[C@@H]4CCC(=O)N4)cc3Cl)c2Cl)C1` (some centres unmarked): under 5 nM; `CCOc1cc(O[C@H]2CCc3c(-c4cccc(OCCCN5CCC(F)CC5)c4C)cccc32)c(Cl)cc1CN[C@@H](CO)C(=O)O`: under 5 nM.
In turn, `CCOc1cc(O[C@H]2CCc3c(-c4cccc(OCCCN5CC(O)C5)c4Cl)cccc32)c(Cl)cc1CN[C@@H]1CCCC[C@@H]1O` yielded a 50% inhibitory concentration (IC50) of 5 to 500 nM.
